Results published in ChEMBL document CHEMBL6182935, “Discovery of a Novel Silybin Derivative for the Treatment of Metabolic Dysfunction-Associated Steatohepatitis” (J Med Chem, 2025).
Calls of active or inactive are those of the source. The rule behind the calls is not given here.

What was measured:
[1] = system: Rattus norvegicus; experiment: Hepatoprotective activity in male Sprague-Dawley rat model of CCl4-induced ALI assessed as restoration of serum AST level at 100 mg/kg, IG qd pretreated with compound for 7 days followed by CCl4 administration after 2 hrs post-compound treatment measured after 16 hrs post-CCl4 injection; assay type: functional, organism-based; conditions: time 186.0 hrs
[2] = system: Rattus norvegicus; experiment: Hepatoprotective activity in male Sprague-Dawley rat model of CCl4-induced ALI assessed as reduction in roughened surface in liver at 100 mg/kg, IG qd pretreated with compound for 7 days followed by CCl4 administration after 2 hrs post-compound treatment measured after 16 hrs post-CCl4 injection; assay type: functional, organism-based; conditions: time 186.0 hrs
[3] = MRT (0 to infinity) in overnight-fasted male Sprague-Dawley rat at 150 mg/kg, po measured up to 12 hrs by HPLC analysis; assay type: ADME, organism-based; conditions: in vivo
[4] = Acute toxicity in male KM mouse assessed as abnormalities in animal at 2 g/kg, po administered as single dose measured after 2 weeks; assay type: organism-based; conditions: in vivo, 2000 mg/kg, 336 h
[5] = system: Mus musculus; experiment: Anti-MASH activity in HFD-fed CCl4-treated male C57BL/6 mouse assessed as reversal of mottled texture of liver at 150 mg/kg, po qd treated for 4 weeks; assay type: functional, organism-based
[6] = system: LX-2; experiment: Anti-MASH activity in TGF-beta-activated-human LX2 cells assessed as reduction in collagen I level incubated for 48 hrs by Western blot analysis; assay type: functional, cell-based; conditions: dose 10-40 µM
[7] = Solubility in […] incubated for 10 mins; assay type: physicochemical
[8] = system: Mus musculus; experiment: Anti-MASH activity in HFD-fed CCl4-treated male C57BL/6 mouse assessed as reduction in steatosis in liver at 150 mg/kg, po qd treated for 4 weeks by H and E/Oil red O staining based analysis; assay type: functional, organism-based
[9] = Toxicity in HFD-fed CCl4-treated male C57BL/6 mouse assessed as body weight loss at 150 mg/kg, po qd treated for 4 weeks; assay type: organism-based; conditions: in vivo, 672 h
[10] = system: Mus musculus; experiment: Anti-MASH activity in HFD-fed CCl4-treated male C57BL/6 mouse assessed as reduction in collagen deposition in liver at 150 mg/kg, po qd treated for 4 weeks by Masson staining based analysis; assay type: functional, organism-based
[11] = system: Hepatocyte; experiment: Anti-MASH activity in palmitate/oleate-stimulated mouse primary hepatocytes assessed as reduction in lipid accumulation by Oil Red O staining assay; assay type: functional, cell-based
[12] = Tmax in overnight-fasted male Sprague-Dawley rat at 150 mg/kg, po measured up to 12 hrs by HPLC analysis; assay type: ADME, organism-based; conditions: in vivo
[13] = system: Mus musculus; experiment: Anti-MASH activity in HFD-fed CCl4-treated male C57BL/6 mouse assessed as reduction in serum triglyceride level at 150 mg/kg, po qd treated for 4 weeks; assay type: functional, organism-based
[14] = system: Mus musculus; experiment: Anti-MASH activity in HFD-fed CCl4-treated male C57BL/6 mouse assessed as reduction in fat dyslipidemia at 150 mg/kg, po qd treated for 4 weeks; assay type: functional, organism-based
[15] = system: L02; experiment: Anti-MASH activity in CCl4-stimulated human LO2 cells assessed as reduction in ROS level incubated for 24 hrs by DCFH-DA staining assay; assay type: functional, cell-based; conditions: dose 2.5-10 µM
[16] = system: Mus musculus; experiment: Anti-MASH activity in HFD-fed CCl4-treated male C57BL/6 mouse assessed as restoration of liver GSH-Px level at 150 mg/kg, po qd treated for 4 weeks; assay type: functional, organism-based
[17] = system: Mus musculus; experiment: Anti-MASH activity in HFD-fed CCl4-treated male C57BL/6 mouse assessed as reduction in collagen I in liver at 150 mg/kg, po qd treated for 4 weeks by IHC analysis; assay type: functional, organism-based
[18] = system: Mus musculus; experiment: Anti-MASH activity in HFD-fed CCl4-treated male C57BL/6 mouse assessed as reduction in fat accumulation in liver at 150 mg/kg, po qd treated for 4 weeks by Oil red O staining based analysis; assay type: functional, organism-based
[19] = Inhibition of lipid peroxidation in egg yolk (unknown origin) preheated with compound and FeSO4 for 15 mins followed by TCA/TBA addition measured after 15 mins by absorbance based assay; assay type: functional, tissue-based
[20] = system: Mus musculus; experiment: Anti-MASH activity in HFD-fed CCl4-treated male C57BL/6 mouse assessed as restoration of liver SOD level at 150 mg/kg, po qd treated for 4 weeks; assay type: functional, organism-based
[21] = system: Mus musculus; experiment: Anti-MASH activity in HFD-fed CCl4-treated male C57BL/6 mouse assessed as restoration of liver GSH level at 150 mg/kg, po qd treated for 4 weeks; assay type: functional, organism-based
[22] = Antioxidant activity assessed as clearing rate incubated for 30 mins under dark condition by DPPH free radical scavenging assay; assay type: functional
[23] = system: Rattus norvegicus; experiment: Hepatoprotective activity in male Sprague-Dawley rat model of CCl4-induced ALI assessed as restoration of serum ALT level at 100 mg/kg, IG qd pretreated with compound for 7 days followed by CCl4 administration after 2 hrs post-compound treatment measured after 16 hrs post-CCl4 injection; assay type: functional, organism-based; conditions: time 186.0 hrs
[24] = Inhibition of lipid peroxidation in egg yolk (unknown origin) at 100 uM preheated with compound and FeSO4 for 15 mins followed by TCA/TBA addition measured after 15 mins by absorbance based assay relative to control; assay type: functional, tissue-based; set-up: scale not given: the % may be the effect or the level left; conditions: time 30.0 min
[25] = system: Mus musculus; experiment: Anti-MASH activity in HFD-fed CCl4-treated male C57BL/6 mouse assessed as reduction in liver IL-6 level at 150 mg/kg, po qd treated for 4 weeks by ELISA; assay type: functional, organism-based
[26] = system: Mus musculus; experiment: Anti-MASH activity in HFD-fed CCl4-treated male C57BL/6 mouse assessed as reduction in serum HDL cholesterol level at 150 mg/kg, po qd treated for 4 weeks; assay type: functional, organism-based
[27] = Cmax in overnight-fasted male Sprague-Dawley rat at 150 mg/kg, po measured up to 12 hrs by HPLC analysis; assay type: ADME, organism-based; conditions: in vivo
[28] = system: Mus musculus; experiment: Anti-MASH activity in HFD-fed CCl4-treated male C57BL/6 mouse assessed as reduction in serum LDL cholesterol level at 150 mg/kg, po qd treated for 4 weeks; assay type: functional, organism-based
[29] = system: Rattus norvegicus; experiment: Hepatoprotective activity in male Sprague-Dawley rat model of CCl4-induced ALI assessed as restoration of serum LDH level at 100 mg/kg, IG qd pretreated with compound for 7 days followed by CCl4 administration after 2 hrs post-compound treatment measured after 16 hrs post-CCl4 injection; assay type: functional, organism-based; conditions: time 186.0 hrs
[30] = Toxicity in male Sprague-Dawley rat model of CCl4-induced ALI assessed as animal growth at 100 mg/kg, IG qd pretreated with compound for 7 days followed by CCl4 administration after 2 hrs post-compound treatment measured after 16 hrs post-CCl4 injection; assay type: organism-based; conditions: in vivo, po, 186 h
[31] = system: Rattus norvegicus; experiment: Hepatoprotective activity in male Sprague-Dawley rat model of CCl4-induced ALI assessed as restoration of SOD level at 100 mg/kg, IG qd pretreated with compound for 7 days followed by CCl4 administration after 2 hrs post-compound treatment measured after 16 hrs post-CCl4 injection; assay type: functional, organism-based; conditions: time 186.0 hrs
[32] = Antioxidant activity assessed as inhibition of superoxide anion scavenging activity incubated for 5 mins in presence of pyrogallol; assay type: functional
[33] = system: L02; experiment: Anti-inflammatory activity in CCl4-stimulated human LO2 cells assessed as reduction in TNF-alpha mRNA level at 1 uM; assay type: functional, cell-based

COc1cc([C@@H]2Oc3cc([C@H]4Oc5cc(O)cc(O)c5C(=O)[C@@H]4O)ccc3OC2CS)ccc1O (stereo partly drawn)
Activity [1]: Active | Activity [2]: Active | MRT inf [3]: 3.51 h | Activity [4]: Non-toxic | Activity [5]: Active; Activity Better Than Silybin | Activity [6]: Dose-dependent-effect | solubility [7]: > 1000 mg/mL | Activity [8]: Active; Activity Was Better Than Silybin | Activity [9]: Non-toxic | Activity [10]: Active | Activity [11]: Active | Tmax [12]: 1.99 h | Activity [13]: Active | Activity [14]: Active | Activity [15]: Active | Activity [16]: Active | Activity [17]: Active | Activity [18]: Active | IC50 [19]: 41.7 µM | Activity [20]: Active | Activity [21]: Active; Compound Was More Significant Than Silybin | Activity [22]: 92.9% | Activity [23]: Active | Activity [24]: 67% | Activity [25]: Active | Activity [26]: Active | Cmax [27]: 4080 ng/mL | Activity [28]: Active | Activity [29]: Active | Activity [30]: Non-toxic | Activity [31]: Active; Exhibited Better Efficacy Than Silybin | IC50 [32]: 28.1 µM | Activity [33]: Active
